Key:
[1] = target: T1, COX-1 (Ovis aries, UniProt P05979); test: COX-1 inhibition, Cayman's COX Colorimetric Inhibitor Screening Assay Kit
T1 sequence (P05979 25-600): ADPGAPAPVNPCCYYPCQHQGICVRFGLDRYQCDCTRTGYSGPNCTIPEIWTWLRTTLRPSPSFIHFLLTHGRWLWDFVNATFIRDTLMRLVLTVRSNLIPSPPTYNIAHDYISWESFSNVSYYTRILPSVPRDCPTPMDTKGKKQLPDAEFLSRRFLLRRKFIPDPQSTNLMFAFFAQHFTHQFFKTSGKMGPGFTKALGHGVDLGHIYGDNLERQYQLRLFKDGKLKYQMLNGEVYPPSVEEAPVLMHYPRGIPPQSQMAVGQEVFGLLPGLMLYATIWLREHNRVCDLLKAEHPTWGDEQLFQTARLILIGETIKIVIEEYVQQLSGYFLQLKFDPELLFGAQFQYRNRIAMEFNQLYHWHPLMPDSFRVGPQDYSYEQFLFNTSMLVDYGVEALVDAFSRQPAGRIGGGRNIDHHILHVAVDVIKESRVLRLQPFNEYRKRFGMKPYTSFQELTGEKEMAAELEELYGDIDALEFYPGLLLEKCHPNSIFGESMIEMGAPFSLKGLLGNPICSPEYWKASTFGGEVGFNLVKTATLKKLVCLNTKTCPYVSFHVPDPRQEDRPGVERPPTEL

[2] = target: T2, human serum albumin (HSA) (Homo sapiens, UniProt P02768); test: Binding site study with HSA, replacement of markers DanG and DanF (fluorescence); parameters: purchased Sigma-Aldrich Chemie GmbH; conditions: for percentage of the replacement of DanG: drug site 1 marker; for percentage of the replacement of DanF: drug site 2 marker
T2 sequence (P02768 25-609): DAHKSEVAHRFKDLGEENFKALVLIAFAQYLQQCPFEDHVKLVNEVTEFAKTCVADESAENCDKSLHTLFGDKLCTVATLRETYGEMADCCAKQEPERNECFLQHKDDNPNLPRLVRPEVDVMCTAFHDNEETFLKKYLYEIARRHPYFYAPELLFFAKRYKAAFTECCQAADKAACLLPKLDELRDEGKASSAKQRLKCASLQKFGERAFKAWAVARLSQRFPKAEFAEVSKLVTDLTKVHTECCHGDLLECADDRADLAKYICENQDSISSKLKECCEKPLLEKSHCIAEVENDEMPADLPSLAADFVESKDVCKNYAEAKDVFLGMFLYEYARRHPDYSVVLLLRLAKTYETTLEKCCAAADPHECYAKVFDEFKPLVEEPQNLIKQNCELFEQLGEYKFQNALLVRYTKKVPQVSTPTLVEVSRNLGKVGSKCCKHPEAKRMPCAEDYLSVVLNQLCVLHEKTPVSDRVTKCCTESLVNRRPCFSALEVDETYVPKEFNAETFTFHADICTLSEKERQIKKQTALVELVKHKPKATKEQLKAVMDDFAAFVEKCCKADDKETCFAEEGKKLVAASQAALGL
Text: HSA, the most important transport protein in our body, has two main binding sites with high affinity to drug binding: drug site 1 in subdomain IIA and drug site 2 in subdomain IIIA [71, 72, 73]. To determine which site the test compounds bind to, the analysis with markers having an affinity for one of the binding sites can be used. Dansylated amino acids turn out to be good for this type of research. In our study, we used dansyl-L-glycine (DanG) and dansyl-L-phenylalanine (DanF) as drug site 1 and drug site 2 markers, respectively. DanG and DanF bound with HSA show the phenomenon of fluorescence at the excitation wave equal to 350 nm. Under these conditions, the fluorescence spectrum is recorded with a band maximum at approximately 510 nm for DanG and 505 nm for DanF, respectively. We conducted a study in which we introduced successive portions of the analyzed compounds to a solution containing equimolar amounts of HSA and each marker. We increased the molar ratio of the reactants from 1:1:0 to 1:1:10. The intensity of fluorescence decreases during the addition of successive portions of the analyzed compounds.
Based on the obtained results, it is possible to calculate the percentage of replacement of DanG or DanF in the complex with albumin by the tested compounds and thus compare the effectiveness of this reaction for all analyzed molecules. (6) percentage of replacement=F0−F/F0·100%
Binding site studies were conducted using fluorescence measurements. Spectra were recorded on Cary Eclipse 500 spectrophotometer (Agilent, Santa Clara, CA, USA) at room temperature with a 10 mm path length. HSA and AAG solutions were prepared in phosphate buffer, giving concentrations equal to 1 × 10^−6 M. The concentrations of dansylated-L-glycine (DanG), dansylated-L-phenylalanine (DanF), and quinaldine red (QR) were 1 × 10^−3 M. The densylated amino acids and QR solutions were prepared in ethanol. For the HSA-dansylated amino acids studies, the excitation wavelength was equal to 350 nm, while for the AAG-QR system, it was 500 nm, respectively. Then, 3 mL of protein was mixed with 3 µL of marker solution, giving a molar ratio of 1 to 1. Next, successive portions of the analyzed compounds were added to the mixtures prepared in this way, obtaining the appropriate protein-to-compound molar ratios, amounting to 1:0, 1:0.5, 1:1, 1:2, 1:3, 1:4, 1:5, and 1:10 for the HSA-densylated amino acids systems, and 1:0, 1:0.5, 1:1, 1:2, 1:3, 1:4, 1:6, 1:8, and 1:10 for the AAG-QR systems.

[3] = target: T2, human serum albumin (HSA); test: Circular dichroism spectroscopy of HSA, secondary structure; parameters: purchased Sigma-Aldrich Chemie GmbH; conditions: for Change in % α-helix, (1:5) minus (1:0) / reduction in the percentage of α-helix: HSA
Procedure: When the small molecules interact with plasma proteins, changes in circular dichroism spectra are observed. Specific secondary structures such as α-helix or β-sheet have a characteristic band on the spectrum. For the first structure, two negative peaks near 209 and 220 nm are observed, while for the β-sheet, the negative band around 215 nm is present.
Circular dichroism (CD) spectra were measured on the Jasco J-1500 magnetic circular dichroism spectrometer (JASCO International CO., Tokyo, Japan) at room temperature with a 10 mm path length. […] The spectra were measured in the range of 205–250 nm at a scan rate speed of 50 nm/min, with a response time of 1 s. […] They were respectively added into 3 mL of protein solution successive portions of the solutions of the analyzed compounds. The analysis of the obtained results was performed using the CD Multivariate Calibration Creation and CD Multivariate SSE programs (JASCO International CO., Tokyo, Japan). Protein concentrations were converted here for mean residue molar concentrations.

[4] = HSA:marker:compound molar ratio 1:1:0.5
[5] = HSA:marker:compound molar ratio 1:1:1
[6] = HSA:marker:compound molar ratio 1:1:2
[7] = HSA:marker:compound molar ratio 1:1:3
[8] = HSA:marker:compound molar ratio 1:1:4
[9] = HSA:marker:compound molar ratio 1:1:5
[10] = HSA:marker:compound molar ratio 1:1:10

Compound	IC50 [1]	percentage of the replacement of DanG [2, 4]	percentage of the replacement of DanG [2, 5]	percentage of the replacement of DanG [2, 6]	percentage of the replacement of DanG [2, 7]	percentage of the replacement of DanG [2, 8]	percentage of the replacement of DanG [2, 9]	percentage of the replacement of DanG [2, 10]	percentage of the replacement of DanF [2, 4]	percentage of the replacement of DanF [2, 5]	percentage of the replacement of DanF [2, 6]	percentage of the replacement of DanF [2, 7]	percentage of the replacement of DanF [2, 8]	percentage of the replacement of DanF [2, 9]	percentage of the replacement of DanF [2, 10]	Change in % α-helix, (1:5) minus (1:0) [3]	% Other ([3]; HSA:compound molar ratio 1:0.5)	% α-Helix ([3]; HSA:compound molar ratio 1:0.5)	% β-Sheet ([3]; HSA:compound molar ratio 1:0.5)	% β-Turn ([3]; HSA:compound molar ratio 1:0.5)	further results
CCCCn1c(C)c2c(OCC(=O)N/N=C/c3ccccc3)nn(C)c(=O)c2c1C [Compound 5a, N-[(Z/E)-benzylideneamino]-2-(6-butyl-3,5,7-trimethyl-4-oxo-pyrrolo[3,4-d]pyridazin-1-yl)oxy-acetamide]	81.9 ± 2.1 µM	0.7%	0.7%	3.7%	5.2%	6.7%	8.5%	15.7%	2.3%	2.7%	5.9%	9.0%	11.7%	14.9%	28.8%	−2.0%	20.7%	67.3%	2.8%	9.2%	% Other ([3]; HSA:compound molar ratio 1:1): 20.9%; % α-Helix ([3]; HSA:compound molar ratio 1:1): 66.9%; % β-Sheet ([3]; HSA:compound molar ratio 1:1): 2.8%; % β-Turn ([3]; HSA:compound molar ratio 1:1): 9.3%; % Other ([3]; HSA:compound molar ratio 1:2): 21.5%; % α-Helix ([3]; HSA:compound molar ratio 1:2): 66.3%; % β-Sheet ([3]; HSA:compound molar ratio 1:2): 2.7%; % β-Turn ([3]; HSA:compound molar ratio 1:2): 9.4%; % Other ([3]; HSA:compound molar ratio 1:3): 21.6%; % α-Helix ([3]; HSA:compound molar ratio 1:3): 66.2%; % β-Sheet ([3]; HSA:compound molar ratio 1:3): 2.8%; % β-Turn ([3]; HSA:compound molar ratio 1:3): 9.5%; % Other ([3]; HSA:compound molar ratio 1:5): 20.3%; % α-Helix ([3]; HSA:compound molar ratio 1:5): 66.1%; % β-Sheet ([3]; HSA:compound molar ratio 1:5): 4.3%; % β-Turn ([3]; HSA:compound molar ratio 1:5): 9.3%
Cc1c2c(OCC(=O)N/N=C/c3ccccc3)nn(C)c(=O)c2c(C)n1-c1ccccc1 [Compound 5b, N-[(Z/E)-benzylideneamino]-2-(3,5,7-trimethyl-4-oxo-6-phenyl-pyrrolo[3,4-d]pyridazin-1-yl)oxy-acetamide]	90.1 ± 1.8 µM	0%	0.7%	5.6%	7.7%	9.8%	11.2%	14.0%	5.2%	9.1%	15.7%	20.4%	23.5%	27.4%	32.2%	−2.4%	20.9%	67.7%	2.2%	9.3%	reduction in the percentage of α-helix [3]: 2.4%; % Other ([3]; HSA:compound molar ratio 1:1): 21.0%; % α-Helix ([3]; HSA:compound molar ratio 1:1): 67.1%; % β-Sheet ([3]; HSA:compound molar ratio 1:1): 2.5%; % β-Turn ([3]; HSA:compound molar ratio 1:1): 9.3%; % Other ([3]; HSA:compound molar ratio 1:2): 20.6%; % α-Helix ([3]; HSA:compound molar ratio 1:2): 66.9%; % β-Sheet ([3]; HSA:compound molar ratio 1:2): 3.2%; % β-Turn ([3]; HSA:compound molar ratio 1:2): 9.3%; % Other ([3]; HSA:compound molar ratio 1:3): 20.5%; % α-Helix ([3]; HSA:compound molar ratio 1:3): 66.6%; % β-Sheet ([3]; HSA:compound molar ratio 1:3): 3.7%; % β-Turn ([3]; HSA:compound molar ratio 1:3): 9.3%; % Other ([3]; HSA:compound molar ratio 1:5): 20.2%; % α-Helix ([3]; HSA:compound molar ratio 1:5): 66.3%; % β-Sheet ([3]; HSA:compound molar ratio 1:5): 4.3%; % β-Turn ([3]; HSA:compound molar ratio 1:5): 9.2%
Cc1c2c(OCC(=O)N/N=C/c3ccccc3)nn(C)c(=O)c2c(C)n1-c1cccc(Cl)c1 [Compound 5c, N-[(Z/E)-benzylideneamino]-2-[6-(3-chlorophenyl)-3,5,7-trimethyl-4-oxo-pyrrolo[3,4-d]pyridazin-1-yl]oxyacetamide]	98.9 ± 1.6 µM	2.9%	2.9%	4.3%	5.0%	5.7%	6.4%	11.4%	6.2%	9.5%	13.8%	18.1%	19.0%	21.0%	23.3%	−1.6%	19.6%	68.4%	2.9%	9.1%	reduction in the percentage of α-helix [3]: 1.6%; % Other ([3]; HSA:compound molar ratio 1:1): 20.3%; % α-Helix ([3]; HSA:compound molar ratio 1:1): 68.0%; % β-Sheet ([3]; HSA:compound molar ratio 1:1): 2.5%; % β-Turn ([3]; HSA:compound molar ratio 1:1): 9.2%; % Other ([3]; HSA:compound molar ratio 1:2): 19.8%; % α-Helix ([3]; HSA:compound molar ratio 1:2): 67.8%; % β-Sheet ([3]; HSA:compound molar ratio 1:2): 3.2%; % β-Turn ([3]; HSA:compound molar ratio 1:2): 9.2%; % Other ([3]; HSA:compound molar ratio 1:3): 19.7%; % α-Helix ([3]; HSA:compound molar ratio 1:3): 67.8%; % β-Sheet ([3]; HSA:compound molar ratio 1:3): 3.3%; % β-Turn ([3]; HSA:compound molar ratio 1:3): 9.1%; % Other ([3]; HSA:compound molar ratio 1:5): 20.0%; % α-Helix ([3]; HSA:compound molar ratio 1:5): 67.3%; % β-Sheet ([3]; HSA:compound molar ratio 1:5): 3.5%; % β-Turn ([3]; HSA:compound molar ratio 1:5): 9.2%
